Data taken from patent US12527325B2, “Pesticidally active diazine-amide compounds” (SYNGENTA CROP PROTECTION AG, priority 2019, dated 2026).

What was measured:
Format in all cases: in vivo
Myzus persicae [1] = test: Example B11: Myzus persicae (Green Peach Aphid), 96-well sucrose solution; conditions: 120 h, application rate of 50 ppm, 96-well sucrose solution under Parafilm, 5 days after infestation
Excerpt: Example B11: Myzus persicae (Green Peach Aphid)
Test compounds prepared from 10′000 ppm DMSO stock solutions were applied by a liquid handling robot into 96-well microtiter plates and mixed with a sucrose solution. Parafilm was stretched over the 96-well microtiter plate and a plastic stencil with 96 holes was placed onto the plate. Aphids were sieved into the wells directly onto the Parafilm. The infested plates were closed with a gel blotting card and a second plastic stencil and then turned upside down. The samples were assessed for mortality 5 days after infestation.

Plutella xylostella [2] = test: Example B12: Plutella xylostella (Diamondback Moth), 96-well artificial diet; conditions: 216 h, application rate of 500 ppm, eggs, 9 days after infestation
Description: Example B12: Plutella xylostella (Diamondback Moth)
96-well microtiter plates containing artificial diet were treated with aqueous test solutions, prepared from 10′000 ppm DMSO stock solutions, by a liquid handling robot. After drying, eggs (˜30 per well) were infested onto a netted lid which was suspended above the diet. The eggs hatch and L1 larvae move down to the diet. The samples were assessed for mortality 9 days after infestation.

Plutella xylostella [3] = test: Example B5: Plutella xylostella (Diamond Back Moth); conditions: 192 h, application rate of 200 ppm, 24-well artificial diet, eggs, 8 days after infestation, read-out: control in at least one of the two categories (mortality or growth inhibition)
Description: Example B5: Plutella xylostella (Diamond Back Moth)
24-well microtiter plates with artificial diet were treated with aqueous test solutions prepared from 10′000 ppm DMSO stock solutions by pipetting. After drying, Plutella eggs were pipetted through a plastic stencil onto a gel blotting paper and the plate was closed with it. The samples were assessed for mortality and growth inhibition in comparison to untreated samples 8 days after infestation.

Myzus persicae [4] = test: Example B8: Myzus persicae (Green Peach Aphid): Intrinsic Activity; conditions: 120 h, test rate of 12 ppm, 24-well sucrose solution under Parafilm, 5 days after infestation
Excerpt: Example B8: Myzus persicae (Green Peach Aphid): Intrinsic Activity
Test compounds prepared from 10′000 ppm DMSO stock solutions were applied by pipette into 24-well microtiter plates and mixed with sucrose solution. The plates were closed with a stretched Parafilm. A plastic stencil with 24 holes was placed onto the plate and infested pea seedlings were placed directly on the Parafilm. The infested plate was closed with a gel blotting paper and another plastic stencil and then turned upside down. The samples were assessed for mortality 5 days after infestation.

Diabrotica balteata = test: Example B1: Diabrotica balteata (Corn Root Worm); conditions: 96 h, application rate of 200 ppm, sprayed maize sprouts, L2 larvae, 4 days after infestation, read-out: control in at least one of the two categories (mortality or growth inhibition)
Description: Example B1: Diabrotica balteata (Corn Root Worm)
Maize sprouts placed onto an agar layer in 24-well microtiter plates were treated with aqueous test solutions prepared from 10′000 ppm DMSO stock solutions by spraying. After drying, the plates were infested with L2 larvae (6 to 10 per well). The samples were assessed for mortality and growth inhibition in comparison to untreated samples 4 days after infestation.

Spodoptera littoralis = test: Example B9: Spodoptera littoralis (Egyptian Cotton Leaf Worm), cotton leaf disc spray; conditions: foliar, 72 h, application rate of 200 ppm, sprayed cotton leaf discs, L1 larvae, 3 days after infestation, read-out: control in at least one of the three categories (mortality, anti-feedant or growth inhibition)
Chilo suppressalis = test: Example B4: Chilo suppressalis (Striped Rice Stemborer); conditions: 144 h, application rate of 200 ppm, artificial diet, L2 larvae, 6 days after infestation, read-out: control in at least one of the three categories (mortality, anti-feedant or growth inhibition)
Description: Example B4: Chilo suppressalis (Striped Rice Stemborer)
24-well microtiter plates with artificial diet were treated with aqueous test solutions prepared from 10′000 ppm DMSO stock solutions by pipetting. After drying, the plates were infested with L2 larvae (6-8 per well). The samples were assessed for mortality, anti-feeding effect, and growth inhibition in comparison to untreated samples 6 days after infestation. Control of Chilo suppressalis by a test sample is given when at least one of the categories mortality, anti-feedant effect, and growth inhibition is higher than the untreated sample.

Euschistus heros = test: Example B2: Euschistus heros (Neotropical Brown Stink Bug); conditions: 120 h, application rate of 200 ppm, sprayed soybean leaves, N2 nymphs, 5 days after infestation, read-out: control in at least one of the two categories (mortality or growth inhibition)
Description: Example B2: Euschistus heros (Neotropical Brown Stink Bug)
Soybean leaves on agar in 24-well microtiter plates were sprayed with aqueous test solutions prepared from 10′000 ppm DMSO stock solutions. After drying the leaves were infested with N2 nymphs. The samples were assessed for mortality and growth inhibition in comparison to untreated samples 5 days after infestation.

Myzus persicae [5] = test: Example B7: Myzus persicae (Green Peach Aphid): Systemic Activity; conditions: 144 h, test rate of 24 ppm, roots of pea seedlings in test solution, 6 days
Description: Example B7: Myzus persicae (Green Peach Aphid): Systemic Activity
Roots of pea seedlings infested with an aphid population of mixed ages were placed directly into aqueous test solutions prepared from 10′000 DMSO stock solutions. The samples were assessed for mortality 6 days after placing seedlings into test solutions.

CC(NC(=O)c1cc(C(F)(F)F)cc(C2(C#N)CC2)c1)c1nccnc1-c1ccc(F)cn1 (stereo not drawn) [P23, 3-(1-cyanocyclopropyl)-N-[1-[3-(5-fluoro-2-pyridyl)pyrazin-2-yl]ethyl]-5-(trifluoromethyl) benzamide]
≥ 80%: mortality at 50 ppm (Myzus persicae [1]) | mortality at 500 ppm (Plutella xylostella [2]) | percent control (mortality or growth inhibition) at 200 ppm (Plutella xylostella [3])

CC(NC(=O)c1cc(C(F)(F)F)cc(S(=O)(=O)C(F)(F)F)c1)c1nccnc1-c1ncccn1 (stereo not drawn) [P19, N-[1-(3-pyrimidin-2-ylpyrazin-2-yl)ethyl]-3-(trifluoromethyl)-5-(trifluoromethylsulfonyl) benzamide]
≥ 80%: mortality at 12 ppm (Myzus persicae [4]) | mortality at 50 ppm (Myzus persicae [1]) | percent control (mortality or growth inhibition) at 200 ppm (Diabrotica balteata) | percent control (mortality, anti-feedant effect or growth inhibition) at 200 ppm (Spodoptera littoralis) | mortality at 500 ppm (Plutella xylostella [2]) | percent control (mortality or growth inhibition) at 200 ppm (Plutella xylostella [3]) | percent control (mortality, anti-feedant effect or growth inhibition) at 200 ppm (Chilo suppressalis)

CC(NC(=O)c1cc(C(F)(F)F)nc(C2(C#N)CC2)c1)c1nccnc1-c1ccccn1 (stereo not drawn) [P26, 2-(1-cyanocyclopropyl)-N-[1-[3-(2-pyridyl)pyrazin-2-yl]ethyl]-6-(trifluoromethyl)pyridine-4-carboxamide]
≥ 80%: mortality at 50 ppm (Myzus persicae [1]) | percent control (mortality or growth inhibition) at 200 ppm (Diabrotica balteata) | percent control (mortality, anti-feedant effect or growth inhibition) at 200 ppm (Spodoptera littoralis) | mortality at 500 ppm (Plutella xylostella [2]) | percent control (mortality or growth inhibition) at 200 ppm (Plutella xylostella [3]) | percent control (mortality, anti-feedant effect or growth inhibition) at 200 ppm (Chilo suppressalis)

CC(NC(=O)c1cc(C2CC2)cc(C(F)(F)F)c1)c1nccnc1-c1ncccn1 (stereo not drawn) [P41, 3-cyclopropyl-N-[1-(3-pyrimidin-2-ylpyrazin-2-yl)ethyl]-5-(trifluoromethyl)benzamide]
≥ 80%: mortality at 12 ppm (Myzus persicae [4]) | percent control (mortality or growth inhibition) at 200 ppm (Diabrotica balteata) | percent control (mortality, anti-feedant effect or growth inhibition) at 200 ppm (Spodoptera littoralis) | percent control (mortality or growth inhibition) at 200 ppm (Plutella xylostella [3]) | percent control (mortality, anti-feedant effect or growth inhibition) at 200 ppm (Chilo suppressalis)

CC(NC(=O)c1cc(C(F)(F)F)cc(C(F)(F)C2CC2)c1)c1nccnc1-c1ncccn1 (stereo not drawn) [P30, 3-[cyclopropyl(difluoro)methyl]-N-[1-(3-pyrimidin-2-ylpyrazin-2-yl)ethyl]-5-(trifluoromethyl)benzamide]
≥ 80%: mortality at 12 ppm (Myzus persicae [4]) | percent control (mortality or growth inhibition) at 200 ppm (Euschistus heros) | percent control (mortality or growth inhibition) at 200 ppm (Diabrotica balteata) | percent control (mortality, anti-feedant effect or growth inhibition) at 200 ppm (Spodoptera littoralis) | percent control (mortality or growth inhibition) at 200 ppm (Plutella xylostella [3]) | percent control (mortality, anti-feedant effect or growth inhibition) at 200 ppm (Chilo suppressalis)

CC(NC(=O)c1cc(C(F)(F)F)cc(C(F)(F)C2CC2)c1)c1nccnc1-c1ccc(Br)cn1 (stereo not drawn) [P21, N-[1-[3-(5-bromo-2-pyridyl)pyrazin-2-yl]ethyl]-3-[cyclopropyl(difluoro)methyl]-5-(trifluoromethyl) benzamide]
≥ 80%: percent control (mortality or growth inhibition) at 200 ppm (Euschistus heros) | mortality at 500 ppm (Plutella xylostella [2]) | percent control (mortality or growth inhibition) at 200 ppm (Plutella xylostella [3])

CC(NC(=O)c1cc(Cl)nc(C(F)(F)F)c1)c1nccnc1-c1ncccn1 (stereo not drawn) [P1, 2-chloro-N-[1-(3-pyrimidin-2-ylpyrazin-2-yl)ethyl]-6-(trifluoromethyl)pyridine-4-carboxamide]
≥ 80%: percent control (mortality or growth inhibition) at 200 ppm (Euschistus heros) | percent control (mortality or growth inhibition) at 200 ppm (Diabrotica balteata) | percent control (mortality or growth inhibition) at 200 ppm (Plutella xylostella [3]) | percent control (mortality, anti-feedant effect or growth inhibition) at 200 ppm (Chilo suppressalis)

CC(NC(=O)c1cc(C(F)(F)F)cc(C(C)(C)C#N)c1)c1nccnc1-c1ncccn1 (stereo not drawn) [P50, 3-(1-cyano-1-methyl-ethyl)-N-[1-(3-pyrimidin-2-ylpyrazin-2-yl)ethyl]-5-(trifluoromethyl)benzamide]
≥ 80%: mortality at 12 ppm (Myzus persicae [4]) | percent control (mortality or growth inhibition) at 200 ppm (Euschistus heros) | percent control (mortality or growth inhibition) at 200 ppm (Diabrotica balteata) | percent control (mortality, anti-feedant effect or growth inhibition) at 200 ppm (Spodoptera littoralis) | percent control (mortality or growth inhibition) at 200 ppm (Plutella xylostella [3]) | mortality at 24 ppm (Myzus persicae [5]) | percent control (mortality, anti-feedant effect or growth inhibition) at 200 ppm (Chilo suppressalis)

CC(NC(=O)c1cc(C2CC2C(F)(F)F)cc(C(F)(F)F)c1)c1nccnc1-c1ncccn1 (stereo not drawn) [P37, N-[1-(3-pyrimidin-2-ylpyrazin-2-yl)ethyl]-3-(trifluoromethyl)-5-[2-(trifluoromethyl)cyclopropyl] benzamide]
≥ 80%: mortality at 12 ppm (Myzus persicae [4]) | percent control (mortality or growth inhibition) at 200 ppm (Diabrotica balteata) | percent control (mortality, anti-feedant effect or growth inhibition) at 200 ppm (Spodoptera littoralis) | mortality at 500 ppm (Plutella xylostella [2]) | percent control (mortality or growth inhibition) at 200 ppm (Plutella xylostella [3]) | percent control (mortality, anti-feedant effect or growth inhibition) at 200 ppm (Chilo suppressalis)

CC(NC(=O)c1cc(C(F)(F)F)cc(C2(C#N)CC2)c1)c1nccnc1-c1ncccn1 (stereo not drawn) [P25, 3-(1-cyanocyclopropyl)-N-[1-(3-pyrimidin-2-ylpyrazin-2-yl)ethyl]-5-(trifluoromethyl)benzamide]
≥ 80%: mortality at 12 ppm (Myzus persicae [4]) | mortality at 50 ppm (Myzus persicae [1]) | percent control (mortality or growth inhibition) at 200 ppm (Euschistus heros) | percent control (mortality or growth inhibition) at 200 ppm (Diabrotica balteata) | percent control (mortality, anti-feedant effect or growth inhibition) at 200 ppm (Spodoptera littoralis) | mortality at 500 ppm (Plutella xylostella [2]) | percent control (mortality or growth inhibition) at 200 ppm (Plutella xylostella [3]) | mortality at 24 ppm (Myzus persicae [5]) | percent control (mortality, anti-feedant effect or growth inhibition) at 200 ppm (Chilo suppressalis)

CC(NC(=O)c1cc(C(F)(F)F)nc(C2(C#N)CC2)c1)c1nccnc1-c1ncc(Br)cn1 (stereo not drawn) [P55, N-[1-[3-(5-bromopyrimidin-2-yl)pyrazin-2-yl]ethyl]-2-(1-cyanocyclopropyl)-6-(trifluoromethyl)pyridine-4-carboxamide]
≥ 80%: mortality at 12 ppm (Myzus persicae [4]) | percent control (mortality or growth inhibition) at 200 ppm (Euschistus heros) | percent control (mortality or growth inhibition) at 200 ppm (Diabrotica balteata) | percent control (mortality, anti-feedant effect or growth inhibition) at 200 ppm (Spodoptera littoralis) | percent control (mortality or growth inhibition) at 200 ppm (Plutella xylostella [3]) | percent control (mortality, anti-feedant effect or growth inhibition) at 200 ppm (Chilo suppressalis)

Cc1cnc(-c2nccnc2C(C)NC(=O)c2cc(C(F)(F)F)cc(C(C)(C)C#N)c2)nc1 (stereo not drawn) [P48, 3-(1-cyano-1-methyl-ethyl)-N-[1-[3-(5-methylpyrimidin-2-yl)pyrazin-2-yl]ethyl]-5-(trifluoromethyl)benzamide]
≥ 80%: percent control (mortality or growth inhibition) at 200 ppm (Euschistus heros) | percent control (mortality, anti-feedant effect or growth inhibition) at 200 ppm (Spodoptera littoralis) | percent control (mortality or growth inhibition) at 200 ppm (Plutella xylostella [3]) | percent control (mortality, anti-feedant effect or growth inhibition) at 200 ppm (Chilo suppressalis)

CC(NC(=O)c1cc(C(F)(F)F)cc(C2(C#N)CC2)c1)c1nccnc1-c1ccccn1 (stereo not drawn) [P22, 3-(1-cyanocyclopropyl)-N-[1-[3-(2-pyridyl)pyrazin-2-yl]ethyl]-5-(trifluoromethyl) benzamide]
≥ 80%: mortality at 50 ppm (Myzus persicae [1]) | percent control (mortality or growth inhibition) at 200 ppm (Diabrotica balteata) | percent control (mortality, anti-feedant effect or growth inhibition) at 200 ppm (Spodoptera littoralis) | mortality at 500 ppm (Plutella xylostella [2]) | percent control (mortality or growth inhibition) at 200 ppm (Plutella xylostella [3]) | percent control (mortality, anti-feedant effect or growth inhibition) at 200 ppm (Chilo suppressalis)
